Experiments:
Experiment in all cases: relative viability (nuclei count vs DMSO), 5 days (fraction); higher = more cells survive
[1] = compound: C1=CC2=NC=CN=C2C=C1/C=C/3\C(=O)NC(=O)S3 + CCNC(=O)c1noc(-c2cc(C(C)C)c(O)cc2O)c1-c1ccc(CN2CCOCC2)cc1 [Luminespib] (partner 0.01 µM)
Method in brief: (§1)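 Values are medians from duplicate plates. Each reflects relative viability, defined as the nuclei count of treated wells over that of vehicle wells. Lung cancer cell lines in 1536-well plates were pin-tool dosed one day after seeding with one drug alone or with a fixed anchor-drug dose plus five library-drug doses (not always all listed) in √10 steps, then fixed, stained and imaged at 4× after 5 days.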

[2] = compound: C1=CC2=NC=CN=C2C=C1/C=C/3\C(=O)NC(=O)S3 + C[C@@H](Oc1cc(-c2cnn(C3CCNCC3)c2)cnc1N)c1c(Cl)ccc(F)c1Cl [Crizotinib] (partner 1 µM)
Method in brief: as §1

[3] = compound: CCN1CCN(c2ccc(Nc3cc(N(C)C(=O)Nc4c(Cl)c(OC)cc(OC)c4Cl)ncn3)cc2)CC1 [BGJ398] + COc1cccc2cc(-c3nc([C@H]4CC[C@H](C(=O)O)CC4)n4ncnc(N)c34)[nH]c12 [OSI-027] (partner 0.5 µM)
Method in brief: as §1

[4] = compound: C1=CC2=NC=CN=C2C=C1/C=C/3\C(=O)NC(=O)S3 + Nc1nc2[nH]cc(CCc3ccc(C(=O)N[C@@H](CCC(=O)O)C(=O)O)cc3)c2c(=O)[nH]1 [Pemetrexed] (partner 0.2 µM)
Method in brief: as §1

With NCI-H2405 the relative viability ([1]; first compound 0.02 µM) was 0.783, the relative viability ([1]; first compound 0.06325 µM) was 0.598 and the relative viability ([1]; first compound 0.2 µM) was 0.6. The relative viability ([1]; first compound 0.6325 µM) was 0.699, the relative viability ([1]; first compound 2 µM) was 0.424 and the relative viability ([2]; first compound 0.02 µM) was 0.865. The relative viability ([2]; first compound 0.06325 µM) was 0.847, the relative viability ([2]; first compound 0.2 µM) was 0.826 and the relative viability ([2]; first compound 0.6325 µM) was 0.869. The relative viability ([2]; first compound 2 µM) was 0.798, the relative viability ([3]; first compound 0.01 µM) was 0.644 and the relative viability ([3]; first compound 0.03162 µM) was 0.724. The relative viability ([3]; first compound 0.1 µM) was 0.664, the relative viability ([3]; first compound 0.3162 µM) was 0.666 and the relative viability ([3]; first compound 1 µM) was 0.655. It also gave a relative viability ([4]; first compound 0.02 µM) of 1.1, a relative viability ([4]; first compound 0.06325 µM) of 1.28 and a relative viability ([4]; first compound 0.2 µM) of 1.22. The relative viability ([4]; first compound 0.6325 µM) was 1.05 and the relative viability ([4]; first compound 2 µM) was 0.859.
With NCI-H3122 the relative viability ([1]; first compound 0.02 µM) was 0.0669, the relative viability ([1]; first compound 0.06325 µM) was 0.0861 and the relative viability ([1]; first compound 0.2 µM) was 0.11. For the same cell line, the relative viability ([1]; first compound 0.6325 µM) was 0.0884, the relative viability ([1]; first compound 2 µM) was 0.106 and the relative viability ([2]; first compound 0.02 µM) was 0.298. For the same cell line, the relative viability ([2]; first compound 0.06325 µM) was 0.253, the relative viability ([2]; first compound 0.2 µM) was 0.277 and the relative viability ([2]; first compound 0.6325 µM) was 0.265. The relative viability ([2]; first compound 2 µM) was 0.203, the relative viability ([3]; first compound 0.01 µM) was 0.91 and the relative viability ([3]; first compound 0.03162 µM) was 1. The relative viability ([3]; first compound 0.1 µM) was 0.941, the relative viability ([3]; first compound 0.3162 µM) was 1 and the relative viability ([3]; first compound 1 µM) was 1.05. For the same cell line, the relative viability ([4]; first compound 0.02 µM) was 0.224, the relative viability ([4]; first compound 0.06325 µM) was 0.216 and the relative viability ([4]; first compound 0.2 µM) was 0.205. It also gave a relative viability ([4]; first compound 0.6325 µM) of 0.2 and a relative viability ([4]; first compound 2 µM) of 0.195.
In the case of PC-3 [JPC-3], the relative viability ([1]; first compound 0.02 µM) was 0.704, the relative viability ([1]; first compound 0.06325 µM) was 0.767 and the relative viability ([1]; first compound 0.2 µM) was 0.732. The relative viability ([1]; first compound 0.6325 µM) was 0.687, the relative viability ([1]; first compound 2 µM) was 0.813 and the relative viability ([2]; first compound 0.02 µM) was 0.954. It also gave a relative viability ([2]; first compound 0.06325 µM) of 1.01, a relative viability ([2]; first compound 0.2 µM) of 0.944 and a relative viability ([2]; first compound 0.6325 µM) of 1.01. The relative viability ([2]; first compound 2 µM) was 1.01, the relative viability ([3]; first compound 0.01 µM) was 0.738 and the relative viability ([3]; first compound 0.1 µM) was 0.76. It also gave a relative viability ([3]; first compound 0.3162 µM) of 0.578, a relative viability ([3]; first compound 1 µM) of 0.676 and a relative viability ([4]; first compound 0.02 µM) of 1.19. The relative viability ([4]; first compound 0.06325 µM) was 1.17, the relative viability ([4]; first compound 0.2 µM) was 1.2 and the relative viability ([4]; first compound 0.6325 µM) was 1.19. It also gave a relative viability ([4]; first compound 2 µM) of 1.23.
PC-14 gave a relative viability ([1]; first compound 0.02 µM) of 0.145, a relative viability ([1]; first compound 0.06325 µM) of 0.19 and a relative viability ([1]; first compound 0.2 µM) of 0.195. It also gave a relative viability ([1]; first compound 0.6325 µM) of 0.193, a relative viability ([1]; first compound 2 µM) of 0.152 and a relative viability ([2]; first compound 0.02 µM) of 0.821. For the same cell line, the relative viability ([2]; first compound 0.06325 µM) was 0.954, the relative viability ([2]; first compound 0.2 µM) was 0.869 and the relative viability ([2]; first compound 0.6325 µM) was 0.972. It also gave a relative viability ([2]; first compound 2 µM) of 0.864, a relative viability ([3]; first compound 0.01 µM) of 0.781 and a relative viability ([3]; first compound 0.03162 µM) of 0.16. It also gave a relative viability ([3]; first compound 0.1 µM) of 1.07, a relative viability ([3]; first compound 0.3162 µM) of 0.464 and a relative viability ([3]; first compound 1 µM) of 1.07. The relative viability ([4]; first compound 0.02 µM) was 0.138, the relative viability ([4]; first compound 0.06325 µM) was 0.148 and the relative viability ([4]; first compound 0.2 µM) was 0.156. The relative viability ([4]; first compound 0.6325 µM) was 0.131 and the relative viability ([4]; first compound 2 µM) was 0.145.
Cell Line RERF-LC-KJ has a relative viability ([1]; first compound 0.02 µM) of 1.2, a relative viability ([1]; first compound 0.06325 µM) of 1.52 and a relative viability ([1]; first compound 0.2 µM) of 1.23. For the same cell line, the relative viability ([1]; first compound 0.6325 µM) was 1.14, the relative viability ([1]; first compound 2 µM) was 1.28 and the relative viability ([2]; first compound 0.02 µM) was 0.547. The relative viability ([2]; first compound 0.06325 µM) was 0.927, the relative viability ([2]; first compound 0.2 µM) was 0.864 and the relative viability ([2]; first compound 0.6325 µM) was 0.837. It also gave a relative viability ([2]; first compound 2 µM) of 0.753, a relative viability ([3]; first compound 0.01 µM) of 0.587 and a relative viability ([3]; first compound 0.03162 µM) of 0.576. For the same cell line, the relative viability ([3]; first compound 0.1 µM) was 0.654, the relative viability ([3]; first compound 0.3162 µM) was 0.573 and the relative viability ([3]; first compound 1 µM) was 0.506. The relative viability ([4]; first compound 0.02 µM) was 0.525, the relative viability ([4]; first compound 0.06325 µM) was 0.501 and the relative viability ([4]; first compound 0.2 µM) was 0.465. For the same cell line, the relative viability ([4]; first compound 0.6325 µM) was 0.489 and the relative viability ([4]; first compound 2 µM) was 0.455.
For SK-LU-1, the relative viability ([1]; first compound 0.02 µM) was 0.203, the relative viability ([1]; first compound 0.06325 µM) was 0.2 and the relative viability ([1]; first compound 0.2 µM) was 0.19. The relative viability ([1]; first compound 0.6325 µM) was 0.202, the relative viability ([1]; first compound 2 µM) was 0.221 and the relative viability ([2]; first compound 0.02 µM) was 0.913. It also gave a relative viability ([2]; first compound 0.06325 µM) of 1.3, a relative viability ([2]; first compound 0.2 µM) of 0.985 and a relative viability ([2]; first compound 0.6325 µM) of 0.903. The relative viability ([2]; first compound 2 µM) was 1.07, the relative viability ([3]; first compound 0.01 µM) was 0.333 and the relative viability ([3]; first compound 0.03162 µM) was 0.4. The relative viability ([3]; first compound 0.1 µM) was 0.362, the relative viability ([3]; first compound 0.3162 µM) was 0.272 and the relative viability ([3]; first compound 1 µM) was 0.35. For the same cell line, the relative viability ([4]; first compound 0.02 µM) was 1.03, the relative viability ([4]; first compound 0.06325 µM) was 1.1 and the relative viability ([4]; first compound 0.2 µM) was 1.02. The relative viability ([4]; first compound 0.6325 µM) was 0.967 and the relative viability ([4]; first compound 2 µM) was 0.798.
SK-MES-1 showed a relative viability ([1]; first compound 0.02 µM) of 0.645, a relative viability ([1]; first compound 0.06325 µM) of 0.876 and a relative viability ([1]; first compound 0.2 µM) of 0.877. For the same cell line, the relative viability ([1]; first compound 0.6325 µM) was 0.779, the relative viability ([1]; first compound 2 µM) was 0.852 and the relative viability ([2]; first compound 0.02 µM) was 0.965. For the same cell line, the relative viability ([2]; first compound 0.06325 µM) was 1.11, the relative viability ([2]; first compound 0.2 µM) was 1.02 and the relative viability ([2]; first compound 0.6325 µM) was 0.981. It also gave a relative viability ([2]; first compound 2 µM) of 1, a relative viability ([3]; first compound 0.01 µM) of 0.589 and a relative viability ([3]; first compound 0.03162 µM) of 0.693. It also gave a relative viability ([3]; first compound 0.1 µM) of 0.594, a relative viability ([3]; first compound 0.3162 µM) of 0.565 and a relative viability ([3]; first compound 1 µM) of 0.69. It also gave a relative viability ([4]; first compound 0.02 µM) of 0.99, a relative viability ([4]; first compound 0.06325 µM) of 1.01 and a relative viability ([4]; first compound 0.2 µM) of 0.953. It also gave a relative viability ([4]; first compound 0.6325 µM) of 0.884 and a relative viability ([4]; first compound 2 µM) of 0.837.
SW 1573 was tested, and the relative viability ([1]; first compound 0.02 µM) was 0.492, the relative viability ([1]; first compound 0.06325 µM) was 0.267 and the relative viability ([1]; first compound 0.2 µM) was 0.222. It also gave a relative viability ([1]; first compound 0.6325 µM) of 0.762, a relative viability ([1]; first compound 2 µM) of 0.208 and a relative viability ([2]; first compound 0.02 µM) of 0.729. For the same cell line, the relative viability ([2]; first compound 0.06325 µM) was 0.816, the relative viability ([2]; first compound 0.2 µM) was 0.825 and the relative viability ([2]; first compound 0.6325 µM) was 0.831. It also gave a relative viability ([2]; first compound 2 µM) of 0.742, a relative viability ([3]; first compound 0.01 µM) of 0.611 and a relative viability ([3]; first compound 0.03162 µM) of 0.766. For the same cell line, the relative viability ([3]; first compound 0.1 µM) was 0.703, the relative viability ([3]; first compound 0.3162 µM) was 0.572 and the relative viability ([3]; first compound 1 µM) was 0.734. The relative viability ([4]; first compound 0.02 µM) was 0.883, the relative viability ([4]; first compound 0.06325 µM) was 1.1 and the relative viability ([4]; first compound 0.2 µM) was 0.802. It also gave a relative viability ([4]; first compound 0.6325 µM) of 0.862 and a relative viability ([4]; first compound 2 µM) of 0.711.
UMC-11 was tested, and the relative viability ([1]; first compound 0.02 µM) was 0.992, the relative viability ([1]; first compound 0.06325 µM) was 1.11 and the relative viability ([1]; first compound 0.2 µM) was 1.05. The relative viability ([1]; first compound 0.6325 µM) was 0.956, the relative viability ([1]; first compound 2 µM) was 1.16 and the relative viability ([2]; first compound 0.02 µM) was 0.627. It also gave a relative viability ([2]; first compound 0.06325 µM) of 0.572, a relative viability ([2]; first compound 0.2 µM) of 0.557 and a relative viability ([2]; first compound 0.6325 µM) of 0.603. It also gave a relative viability ([2]; first compound 2 µM) of 0.722, a relative viability ([3]; first compound 0.01 µM) of 0.494 and a relative viability ([3]; first compound 0.03162 µM) of 0.449. The relative viability ([3]; first compound 0.1 µM) was 0.53, the relative viability ([3]; first compound 0.3162 µM) was 0.411 and the relative viability ([3]; first compound 1 µM) was 0.429. The relative viability ([4]; first compound 0.02 µM) was 0.775, the relative viability ([4]; first compound 0.06325 µM) was 0.816 and the relative viability ([4]; first compound 0.2 µM) was 0.862. The relative viability ([4]; first compound 0.6325 µM) was 0.79 and the relative viability ([4]; first compound 2 µM) was 0.887.
